Measurements taken from article PMC4770093, “The role of kinetic context in apparent biased agonism at GPCRs” (Nature Communications, 2016).
“And” between values parts separate entries of the source, which are not always exact repeats. Equal values may be shown once.

Legend:
D2LR [1] = target: T1, D2LR (Homo sapiens, UniProt P14416); test: Gαi1 G protein activation (BRET); format: cell-based; set-up: expressed in transfected cells; settings: 5 minute timepoint
Description: G protein activation. Flp-In-CHO cells stably expressing the D2LR were seeded at a density of 2,000,000 cells per 10-cm dish and were transfected the following day using polyethylenimine as the transfection reagent. […] Twenty-four hours after transfection, the cells were plated into 96-well CulturPlates (PerkinElmer) and grown overnight. The cells were equilibrated in Hank's balanced salt solution at 37 °C before starting the experiment. The cells were stimulated with the agonists for the indicated timeframes when the BRET readings were captured. Coelenterazine (Promega) was added at a final concentration of 5 μM at least 3 min before measurement. […] Net BRET was determined by subtraction of the vehicle control from the agonist-induced response.

D2LR [2] = target: T1, D2LR; test: Inhibition of forskolin-induced cAMP production (BRET CAMYEL biosensor); settings: for Emax cAMP: relative to the maximal response of ropinirole; for Inhibition of cAMP production measured using a CAMYEL BRET biosensor, Net BRET: single experiments n = 1, 2, 3
Description: Flp-In-CHO cells stably expressing the D2LR were seeded at a density of 2,000,000 cells per 10-cm dish and were transfected the following day using polyethylenimine as the transfection reagent. The cells were transfected with 3 μg CAMYEL, to allow the detection of cAMP levels within the cells. Twenty-four hours after transfection, the cells were plated into 96-well CulturPlates (PerkinElmer) and grown overnight. The cells were equilibrated in Hank's balanced salt solution at 37 °C (or 25 °C when indicated) before starting the experiment. The cells were co-stimulated with the agonists and 10 μM forskolin for the indicated timeframes when the BRET readings were captured. Coelenterazine (Promega) was added at a final concentration of 5 μM at least 3 min before measurement. […] Net BRET was determined by subtraction of the vehicle control co-added with 10 μM forskolin.

D2R = test: Simulation of receptor occupancy over time from kon and koff; settings: simulation with a KD concentration of each agonist
Description: We extended these studies with a Tag-lite receptor binding assay using a D2R construct with an amino-terminal SNAP tag and the fluorescently labelled agonist (±)-4′-amino-2-(N-phenethyl-N-propyl)-amino-5-hydroxytetralin (PPHT). […] The association rate of a ligand is often thought to be diffusion limited. […] Using these kinetic parameters, we performed a simulation to estimate the receptor occupancy of a KD concentration of each agonist over time (Fig. 4e).
Kinetic binding parameters of kon (a), koff (b) and t1/2 (c) were determined in a competition kinetic binding assay using a Tag-lite binding assay and the fluorescently labelled agonist PPHT as the tracer ligand (Supplementary Table 6). […] All values are expressed as mean±s.e.m. from three experiments. (e) The values of kon and koff obtained in the competition kinetic assay were used to simulate receptor occupancy over time using equation (9) and the concentration of ligand equivalent to its KD (see Supplementary Table 6).
where Ymax reflects maximum binding of a concentration of ligand and kob is determined by equation (8).

T1 sequence (P14416 whole entry): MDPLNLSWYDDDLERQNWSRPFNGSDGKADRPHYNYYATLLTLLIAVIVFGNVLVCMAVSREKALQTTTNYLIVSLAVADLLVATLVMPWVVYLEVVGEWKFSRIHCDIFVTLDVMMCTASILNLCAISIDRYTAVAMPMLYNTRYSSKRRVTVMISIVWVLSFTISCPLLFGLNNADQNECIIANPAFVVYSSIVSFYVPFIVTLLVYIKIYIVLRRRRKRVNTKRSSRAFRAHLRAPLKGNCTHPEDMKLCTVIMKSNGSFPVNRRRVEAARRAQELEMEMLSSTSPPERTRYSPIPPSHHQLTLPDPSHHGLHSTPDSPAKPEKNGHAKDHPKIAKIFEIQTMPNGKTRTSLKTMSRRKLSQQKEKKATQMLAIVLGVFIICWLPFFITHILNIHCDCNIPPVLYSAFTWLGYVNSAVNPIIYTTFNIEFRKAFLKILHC

Compound: CCCN1CCC[C@@H](c2cccc(O)c2)C1 [S-3PPP, (S)-(-)-3-(3-hydroxyphenyl)-N-propylpiperidine]
- Log(τ/KA) Gαi1 activation (D2LR [1]; Flp-In-CHO-D2LR): 6.60 ± 0.12
- ΔLog(τ/KA) Gαi1 activation (D2LR [1]; dopamine as reference agonist): -0.58 ± 0.15
- Emax cAMP (D2LR [2]; 2 min): 73 ± 1.9
- Emax cAMP (D2LR [2]; 5 min): 73 ± 2.0
- Log(τ/KA) cAMP (D2LR [2]; 5 minute timepoint, Flp-In-CHO-D2LR): 6.65 ± 0.06
- ΔLog(τ/KA) cAMP (D2LR [2]; 5 minute timepoint, dopamine as reference agonist): -1.40 ± 0.08
- Emax cAMP (D2LR [2]; 10 min): 70 ± 1.7
- Emax cAMP (D2LR [2]; 15 min): 70 ± 1.9
- Emax cAMP (D2LR [2]; 30 min): 71 ± 2.5
- Emax cAMP (D2LR [2]; 45 min): 64 ± 1.4
- Emax cAMP (D2LR [2]; 60 min): 53 ± 2.4
- Emax cAMP (D2LR [2]; 75 min): 66 ± 1.4
- Emax cAMP (D2LR [2]; 90 min): 60 ± 0.8
- Inhibition of cAMP production measured using a CAMYEL BRET biosensor, Net BRET (D2LR [2]; time 2.21667 mins): 0.05465 and 0.08466 and 0.07325
- Inhibition of cAMP production measured using a CAMYEL BRET biosensor, Net BRET (D2LR [2]; time 2.58333 mins): 0.05879 and 0.0813 and 0.07011
- Inhibition of cAMP production measured using a CAMYEL BRET biosensor, Net BRET (D2LR [2]; time 2.95 mins): 0.05876 and 0.09107 and 0.0617
- Inhibition of cAMP production measured using a CAMYEL BRET biosensor, Net BRET (D2LR [2]; time 3.31667 mins): 0.05926 and 0.0872 and 0.07317
- Inhibition of cAMP production measured using a CAMYEL BRET biosensor, Net BRET (D2LR [2]; time 3.68333 mins): 0.06005 and 0.08327 and 0.07534
- Inhibition of cAMP production measured using a CAMYEL BRET biosensor, Net BRET (D2LR [2]; time 4.05 mins): 0.08108 and 0.08891 and 0.07666
- Inhibition of cAMP production measured using a CAMYEL BRET biosensor, Net BRET (D2LR [2]; time 4.41667 mins): 0.07291 and 0.08859 and 0.07671
- Inhibition of cAMP production measured using a CAMYEL BRET biosensor, Net BRET (D2LR [2]; time 4.78333 mins): 0.08207 and 0.09068 and 0.07598
- Inhibition of cAMP production measured using a CAMYEL BRET biosensor, Net BRET (D2LR [2]; time 5.15 mins): 0.088 and 0.08877 and 0.07517
- Inhibition of cAMP production measured using a CAMYEL BRET biosensor, Net BRET (D2LR [2]; time 5.51667 mins): 0.08023 and 0.0868 and 0.07779
- Inhibition of cAMP production measured using a CAMYEL BRET biosensor, Net BRET (D2LR [2]; time 5.88333 mins): 0.08241 and 0.08562 and 0.08229
- Inhibition of cAMP production measured using a CAMYEL BRET biosensor, Net BRET (D2LR [2]; time 6.25 mins): 0.0777 and 0.08078 and 0.07833
- Inhibition of cAMP production measured using a CAMYEL BRET biosensor, Net BRET (D2LR [2]; time 6.61667 mins): 0.07786 and 0.08188 and 0.07763
- Inhibition of cAMP production measured using a CAMYEL BRET biosensor, Net BRET (D2LR [2]; time 6.98333 mins): 0.08463 and 0.08155 and 0.08058
- Inhibition of cAMP production measured using a CAMYEL BRET biosensor, Net BRET (D2LR [2]; time 7.35 mins): 0.08243 and 0.07743 and 0.07354
- Inhibition of cAMP production measured using a CAMYEL BRET biosensor, Net BRET (D2LR [2]; time 7.71667 mins): 0.08152 and 0.0852 and 0.08224
- Inhibition of cAMP production measured using a CAMYEL BRET biosensor, Net BRET (D2LR [2]; time 8.08333 mins): 0.08811 and 0.08583 and 0.07638
- Inhibition of cAMP production measured using a CAMYEL BRET biosensor, Net BRET (D2LR [2]; time 8.45 mins): 0.08386 and 0.08753 and 0.07171
- Inhibition of cAMP production measured using a CAMYEL BRET biosensor, Net BRET (D2LR [2]; time 8.81667 mins): 0.09076 and 0.08128 and 0.08398
- Inhibition of cAMP production measured using a CAMYEL BRET biosensor, Net BRET (D2LR [2]; time 9.18333 mins): 0.08865 and 0.08603 and 0.07348
- Inhibition of cAMP production measured using a CAMYEL BRET biosensor, Net BRET (D2LR [2]; time 9.55 mins): 0.08292 and 0.0837 and 0.08159
- Inhibition of cAMP production measured using a CAMYEL BRET biosensor, Net BRET (D2LR [2]; time 9.91667 mins): 0.09198 and 0.07873 and 0.08223
- Inhibition of cAMP production measured using a CAMYEL BRET biosensor, Net BRET (D2LR [2]; time 10.2833 mins): 0.08942 and 0.08142 and 0.08126
- Inhibition of cAMP production measured using a CAMYEL BRET biosensor, Net BRET (D2LR [2]; time 10.65 mins): 0.09447 and 0.08477 and 0.08651
- Inhibition of cAMP production measured using a CAMYEL BRET biosensor, Net BRET (D2LR [2]; time 11.0167 mins): 0.09406 and 0.0745 and 0.08653
- Inhibition of cAMP production measured using a CAMYEL BRET biosensor, Net BRET (D2LR [2]; time 11.3833 mins): 0.09952 and 0.0798 and 0.08963
- Inhibition of cAMP production measured using a CAMYEL BRET biosensor, Net BRET (D2LR [2]; time 11.75 mins): 0.09797 and 0.09183 and 0.0831
- Inhibition of cAMP production measured using a CAMYEL BRET biosensor, Net BRET (D2LR [2]; time 12.1167 mins): 0.0995 and 0.08775 and 0.0921
- Inhibition of cAMP production measured using a CAMYEL BRET biosensor, Net BRET (D2LR [2]; time 12.4833 mins): 0.08767 and 0.08489 and 0.09746
- Inhibition of cAMP production measured using a CAMYEL BRET biosensor, Net BRET (D2LR [2]; time 12.85 mins): 0.09546 and 0.09264 and 0.08756
- Inhibition of cAMP production measured using a CAMYEL BRET biosensor, Net BRET (D2LR [2]; time 13.2167 mins): 0.09597 and 0.0888 and 0.1009
- Inhibition of cAMP production measured using a CAMYEL BRET biosensor, Net BRET (D2LR [2]; time 13.5833 mins): 0.09698 and 0.09198 and 0.09379
- Inhibition of cAMP production measured using a CAMYEL BRET biosensor, Net BRET (D2LR [2]; time 13.95 mins): 0.09269 and 0.09222 and 0.0998
- Inhibition of cAMP production measured using a CAMYEL BRET biosensor, Net BRET (D2LR [2]; time 14.3167 mins): 0.1016
- time to maximal receptor occupancy (D2R): ≤ 1 min
